As a reminder, the IC50 is the concentration that inhibits the measured activity by half. As usually defined, the inhibition is how much of the control response was suppressed.

The record followed here is patent US9975857B2, “Inhibition of bacterial biofilms with imidazole-phenyl derivatives” (North Carolina State University, priority 2008, dated 2018).

The experiment relates to A. baumannii. Put plainly: Biofilm inhibition assay (crystal violet, 96-well PVC plate). As to conditions: Acinetobacter baumannii, LB medium, 37° C., 24 hours, crystal violet OD540; for IC50: read-out: ACTIVITY against A. baumannii: IC50 (biofilm inhibition). It counts as cell-based. Here is the method:
Biofilm inhibition assays were performed by taking an overnight culture of bacterial strain and subculturing it at an OD600 of 0.10 into LB medium. The compound being tested was then added at a predetermined concentration and then aliquoted (100 μL) into the wells of a 96-well PVC microtiter plate (Wells not used for samples were filled with 100 μL of de-ionized water). Plates were then wrapped in GLAD Press n' Seal® and incubated under stationary conditions at 37° C. After 24 hours, the media was discarded from the wells and the plates were washed thoroughly with tap water. Plates were then stained with 100 μL of 0.1% solution of crystal violet (CV) and then incubated at an ambient temperature for 30 minutes. Sample plates were then washed with tap water again, and the remaining stain was solubilized with 200 μL of 95% ethanol. Biofilm inhibition was quantitated by measuring the OD540 for each well by transferring 125 μL of the solubilized CV stain into a polystyrene microtiter dish for analysis.

The structures appear in SMILES notation.

Turning to `Nc1ncc(-c2ccc(C#Cc3cc(F)cc(F)c3)cc2)[nH]1`, the IC50 was less than 50 µM.
On the same count and under the same terms, for `Nc1ncc(-c2ccc(C#Cc3ccccc3)cc2)[nH]1` the value was 6.54 µM; for `COc1ccc(C#Cc2ccccc2-c2cnc(N)[nH]2)c(C)c1`, 40 to 50 µM; for `Nc1ncc(-c2ccccc2C#Cc2cccc(Cl)c2)[nH]1`, less than 50 µM.
For `Nc1ncc(-c2ccccc2C#Cc2ccccc2)[nH]1`, the IC50 was in the range of 50 to 75 µM.
Consider `COc1ccccc1C#Cc1cccc(-c2cnc(N)[nH]2)c1`, for which the inhibition at 100 µM (at 100 μM, read-out: ACTIVITY against A. baumannii: % inhibition (biofilm inhibition)) turned out to be 34%.
